Test results published in patent US8044082B2, “N-phenylacetamide inhibitors of the enzyme SOAT-1 and pharmaceutical/cosmetic compositions comprised thereof” (Galderma Research & Development, priority 2007, dated 2011).

Row | SMILES | melting point [°C]
1 | CC(C)c1cccc(C(C)C)c1NC(=O)CN1C(=O)N(c2ccc(Cl)cc2)C2(CCCCC2)C1=O [compound (I.6), 2-[1-(4-Chlorophenyl)-2,4-dioxo-1,3-diazaspiro[4.5]dec-3-yl]-N-(2,6-di-isopropylphenyl)acetamide] | 237
2 | COc1ccc(N2C(=O)N(CC(=O)Nc3c(C(C)C)cccc3C(C)C)C(=O)C23CCCCC3)cc1 [compound (I.8), N-(2,6-Diisopropylphenyl)-2-[1-(4-methoxyphenyl)-2,4-dioxo-1,3-diazaspiro[4.5]dec-3-yl]acetamide] | 193
3 | CC(C)c1cccc(C(C)C)c1NC(=O)CN1C(=O)N(c2ccccc2)C2(CCCCCC2)C1=O [compound (I.9), N-(2,6-Diisopropylphenyl)-2-(2,4-dioxo-1-phenyl-1,3-diazaspiro[4.6]undec-3-yl)acetamide] | 230
4 | CC(C)c1cccc(C(C)C)c1NC(=O)CN1C(=O)N(c2cccc(F)c2)C2(CCCCC2)C1=O [compound (I.11), N-(2,6-Diisopropylphenyl)-2-[1-(3-fluorophenyl)-2,4-dioxo-1,3-diazaspiro[4.5]dec-3-yl]acetamide] | 234
5 | CC(C)c1cccc(C(C)C)c1NC(=O)CN1C(=O)N(c2cccc(Cl)c2)C2(CCCCC2)C1=O [compound (I.12), 2-[1-(3-Chlorophenyl)-2,4-dioxo-1,3-diazaspiro[4.5]dec-3-yl]-N-(2,6-di-isopropylphenyl)acetamide] | 240
6 | CC(C)c1cccc(C(C)C)c1NC(=O)CN1C(=O)N(C2CCCCCC2)C2(CCCCC2)C1=O [compound (I.15)] | 248
7 | Cc1cccc(N2C(=O)N(CC(=O)Nc3c(C(C)C)cccc3C(C)C)C(=O)C23CCCCC3)c1 [compound (I.16), N-(2,6-Diisopropylphenyl)-2-(2,4-dioxo-1-m-tolyl-1,3-diazaspiro[4.5]dec-3-yl)acetamide] | 215
8 | COc1cccc(N2C(=O)N(CC(=O)Nc3c(C(C)C)cccc3C(C)C)C(=O)C23CCCCC3)c1 [compound (I.18), N-(2,6-Diisopropylphenyl)-2-[1-(3-methoxyphenyl)-2,4-dioxo-1,3-diazaspiro[4.5]dec-3-yl]acetamide] | 198
9 | CC(C)c1cccc(C(C)C)c1NC(=O)CN1C(=O)N(c2ccccc2F)C2(CCCCC2)C1=O [compound (I.19)] | 231
10 | CC(C)c1cccc(C(C)C)c1NC(=O)CN1C(=O)N(Cc2ccccc2)C2(CCCCC2)C1=O [compound (I.22), 2-(1-Benzyl-2,4-dioxo-1,3-diazaspiro[4.5]dec-3-yl)-N-(2,6-diisopropyl-phenyl)acetamide] | 214
11 | CCCN1C(=O)N(CC(=O)Nc2c(C(C)C)cccc2C(C)C)C(=O)C12CCCCC2 [compound (I.25), N-(2,6-Diisopropylphenyl)-2-(2,4-dioxo-1-propyl-1,3-diazaspiro[4.5]dec-3-yl)acetamide] | 253
12 | CC(C)CN1C(=O)N(CC(=O)Nc2c(C(C)C)cccc2C(C)C)C(=O)C12CCCCC2 [compound (I.28), N-(2,6-Diisopropylphenyl)-2-(1-isobutyl-2,4-dioxo-1,3-diazaspiro[4.5]dec-3-yl)acetamide] | 233
13 | CCCCCN1C(=O)N(CC(=O)Nc2c(C(C)C)cccc2C(C)C)C(=O)C12CCCCC2 [compound (I.29), N-(2,6-Diisopropylphenyl)-2-(2,4-dioxo-1-pentyl-1,3-diazaspiro[4.5]dec-3-yl)acetamide] | 200

The remaining lines, values ahead:

Row | melting point [°C] | SMILES
14 | 245 | CC(C)c1cccc(C(C)C)c1NC(=O)CN1C(=O)N(c2ccccc2)C2(CCCCC2)C1=O [compound (I.2), N-(2,6-Diisopropylphenyl)-2-(2,4-dioxo-1-phenyl-1,3-diazaspiro[4.5]dec-3-yl)acetamide]
15 | 177 | Cc1cc(C(=O)N(C)C2CCCCC2)cc(C)c1NC(=O)CN1C(=O)N(c2ccccc2)C2(CCCCC2)C1=O [compound (I.3), N-(Cyclohexyl)-4-[2-(2,4-dioxo-1-phenyl-1,3-diazaspiro[4.5]dec-3-yl]-acetylamino]-3,5,N-trimethylbenzamide]
16 | 242 | Cc1cc(C(=O)N(C)c2ccccc2)cc(C)c1NC(=O)CN1C(=O)N(c2ccccc2)C2(CCCCC2)C1=O [compound (I.4), 4-[2-(2,4-Dioxo-1-phenyl-1,3-diazaspiro[4.5]dec-3-y]acetylamino]-3,5,N-tri methyl-N-phenylbenzamide]
17 | 257 | CC(C)c1cccc(C(C)C)c1NC(=O)CN1C(=O)N(C2CCCC2)C2(CCCCC2)C1=O [compound (I.13), 2-(1-Cyclopentyl-2,4-dioxo-1,3-diazaspiro[4.5]dec-3-yl)-N-(2,6-diisopropyl-phenyl)acetamide]
18 | 268 | CC(C)c1cccc(C(C)C)c1NC(=O)CN1C(=O)N(c2ccc(F)cc2)C2(CCCC2)C1=O [compound (I.17), N-(2,6-Diisopropylphenyl)-2-[1-(4-fluorophenyl)-2,4-dioxo-1,3-diazaspiro[4.4]non-3-yl]acetamide]
19 | 252 | CC(C)c1cccc(C(C)C)c1NC(=O)CN1C(=O)N(c2ccccc2Cl)C2(CCCCC2)C1=O [compound (I.20), 2-[1-(2-Chlorophenyl)-2,4-dioxo-1,3-diazaspiro[4.5]dec-3-yl]-N-(2,6-di-isopropylphenyl)acetamide]
20 | 238 | Cc1ccccc1N1C(=O)N(CC(=O)Nc2c(C(C)C)cccc2C(C)C)C(=O)C12CCCCC2 [compound (I.21), N-(2,6-Diisopropylphenyl)-2-(2,4-dioxo-1-o-tolyl-1,3-diazaspiro[4.5]dec-3-yl)acetamide]
21 | 270 | CC(C)c1cccc(C(C)C)c1NC(=O)CN1C(=O)N(c2ccc(Cl)cc2)C2(CCCC2)C1=O [compound (I.24), 2-[1-(4-Chlorophenyl)-2,4-dioxo-1,3-diazaspiro[4.4]non-3-yl]-N-(2,6-di-isopropylphenyl)acetamide]
22 | 219 | CC(C)c1cccc(C(C)C)c1NC(=O)CN1C(=O)N(CC2CCCCC2)C2(CCCCC2)C1=O [compound (I.27), 2-(1-Cyclohexylmethyl-2,4-dioxo-1,3-diazaspiro[4.5]dec-3-yl)-N-(2,6-di-isopropylphenyl)acetamide]
23 | 208 | CCCCCCCN1C(=O)N(CC(=O)Nc2c(C(C)C)cccc2C(C)C)C(=O)C12CCCCC2 [compound (I.30), N-(2,6-Diisopropylphenyl)-2-(1-heptyl-2,4-dioxo-1,3-diazaspiro[4.5]dec-3-yl)acetamide]
24 | 240 | CC(C)c1cccc(C(C)C)c1NC(=O)CN1C(=O)N(CC2CC2)C2(CCCCC2)C1=O [compound (I.31), 2-(1-Cyclopropylmethyl-2,4-dioxo-1,3-diazaspiro[4.5]dec-3-yl)-N-(2,6-di-isopropylphenyl)acetamide]
25 | 250 | CC(C)c1cccc(C(C)C)c1NC(=O)CN1C(=O)N(CC(C)(C)C)C2(CCCCC2)C1=O [compound (I.32), N-(2,6-Diisopropylphenyl)-2-[1-(2,2-dimethylpropyl)-2,4-dioxo-1,3-diazaspiro[4.5]dec-3-yl]acetamide]
26 | 229 | COc1ccccc1N1C(=O)N(CC(=O)Nc2c(C(C)C)cccc2C(C)C)C(=O)C12CCCCC2 [compound (I.33), N-(2,6-Diisopropylphenyl)-2-[1-(2-methoxyphenyl)-2,4-dioxo-1,3-diazaspiro[4.5]dec-3-yl]acetamide]
